Laboratory results taken from patent US9777005B2 (Takeda Pharmaceutical Company Limited, priority 2012, dated 2017).

Biological target: T1, human M1 receptor (hCHRM1) (Homo sapiens, UniProt P11229)
T1 construct: expressed in transfected cells; host or cells: CHO-K1
T1 sequence (P11229 1-460): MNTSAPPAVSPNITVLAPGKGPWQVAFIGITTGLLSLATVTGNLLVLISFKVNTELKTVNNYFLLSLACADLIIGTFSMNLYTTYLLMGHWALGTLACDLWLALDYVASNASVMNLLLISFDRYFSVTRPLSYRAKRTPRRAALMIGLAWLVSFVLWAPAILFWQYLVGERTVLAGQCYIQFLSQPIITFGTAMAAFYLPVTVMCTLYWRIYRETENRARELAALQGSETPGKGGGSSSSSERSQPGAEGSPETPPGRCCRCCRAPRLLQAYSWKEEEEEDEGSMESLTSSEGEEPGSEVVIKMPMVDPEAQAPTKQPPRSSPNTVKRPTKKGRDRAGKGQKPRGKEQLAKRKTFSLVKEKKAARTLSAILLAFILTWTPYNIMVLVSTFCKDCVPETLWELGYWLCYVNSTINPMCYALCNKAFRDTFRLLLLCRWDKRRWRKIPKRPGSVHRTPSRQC
Experiment: Measurement of M1 receptor positive allosteric modulator (M1PAM) activity, calcium fluorescence (FLIPRtetra) in CHO-K1 cells in the presence of acetylcholine at EC20
Type: cell-based
Conditions: in the presence of acetylcholine at EC20 (final 0.6 nM), CHO-K1 cells expressing hCHRM1; for EC50: inflection point of M1PAM activity, read-out: IP value; for activity (%) at 10 μM: test compound 10 μM
Description: Measurement of M1 Receptor Positive Allosteric Modulator (M1PAM) Activity
The activity of a test compound in the presence of acetylcholine at EC20 concentration (final concentration 0.6 nM), which affords an action corresponding to 20% of the maximum activity, was measured as PAM activity. The method is as follows. CHO-K1 cells forcibly expressing a human M1 receptor (hCHRM1) were plated on a 384-well black clear bottom plate (BD Falcon) at 5,000 cells/well, and cultured in an incubator at 37° C., 5% CO2 for 1 day. The medium in the cell plate was removed, and assay buffer A (Recording medium (DOJINDO LABORATORIES), 0.1% BSA (Wako Pure Chemical Industries, Ltd.), 2.5 μg/mL Fluo-4 AM (DOJINDO LABORATORIES), 0.08% Pluronic F127 (DOJINDO LABORATORIES), 1.25 mM probenecid (DOJINDO LABORATORIES)) containing a calcium indicator was added at 30 μL/well. The cells were left standing in the incubator at 37° C., 5% CO2 for 30 min, and further left standing at room temperature for 30 min. A test compound prepared by diluting with assay buffer B (HBSS (Invitrogen), 20 mM HEPES (Invitrogen), 0.1% BSA) containing 2.4 nM acetylcholine was added at 10 μL/well, and the fluorescence was measured by FLIPRtetra (Molecular Devices) for 1 min every 1 second. With the definition that the amount of change in the fluorescence on addition of acetylcholine (final concentration 1 μM) is 100% and that on addition of DMSO instead of a test compound is 0%, the activity (%) of the test compound and the inflection point in the concentration-dependent curve of the test compound were calculated as IP values.

| Molecule | EC50 [nM] | activity (%) at 10 μM [%] |
| --- | --- | --- |
| CCNC(=O)c1ccc(CN2Cc3ccnc(Oc4ccc(C)cc4F)c3C2=O)c(F)c1 [Example 441, N-ethyl-3-fluoro-4-((4-(2-fluoro-4-methylphenoxy)-3-oxo-1,3-dihydro-2H-pyrrolo[3,4-c]pyridin-2-yl)methyl)benzamide] | 44 | 100 |
| 1,5-anhydro-2-deoxy-3-O-(3-oxo-2-(4-(1H-pyrazol-1-yl)benzyl)-2,3-dihydro-1H-isoindol-4-yl)-threo-pentitol [Example 239] | 6.1 | 109 |
| O=C1c2c(cccc2O[C@H]2CCCC[C@@H]2O)CN1Cc1cccc(Br)c1 (relative stereo) [Example 48, 2-(3-bromobenzyl)-7-((trans-2-hydroxycyclohexyl)oxy)isoindolin-1-one] | 360 | 100 |
| Cn1ccc(-c2ccc(CN3Cc4ccnc(OCC5CCCCO5)c4C3=O)cc2)n1 (stereo not drawn) [Example 253, 2-(4-(1-methyl-1H-pyrazol-3-yl)benzyl)-4-((tetrahydro-2H-pyran-2-yl)methoxy)-1,2-dihydro-3H-pyrrolo[3,4-c]pyridin-3-one] | 22 | 100 |
| Cn1cc(-c2ccc(CN3Cc4ncnc(Oc5ccc(C(F)(F)F)cc5F)c4C3=O)cc2)cn1 [Example 306, 4-(2-fluoro-4-(trifluoromethyl)phenoxy)-6-(4-(1-methyl-1H-pyrazol-4-yl)benzyl)-6,7-dihydro-5H-pyrrolo[3,4-d]pyrimidin-5-one] | 8.9 | 97 |
| Cn1cc(-c2ccc(CN3Cc4cccc(Oc5c(F)cccc5Cl)c4C3=O)cc2)cn1 [Example 12, 7-(2-chloro-6-fluorophenoxy)-2-(4-(1-methyl-1H-pyrazol-4-yl)benzyl)isoindolin-1-one] | 36 | 57 |
| Cc1nn(C)cc1-c1ccc(CN2Cc3ccnc(OCCn4cccn4)c3C2=O)cc1 [Example 225, 2-(4-(1,3-dimethyl-1H-pyrazol-4-yl)benzyl)-4-(2-(1H-pyrazol-1-yl)ethoxy)-1,2-dihydro-3H-pyrrolo[3,4-c]pyridin-3-one] | 51 | 104 |
| COc1cccc(F)c1Oc1nccc2c1C(=O)N(Cc1ccc(-c3cnn(C)c3)cc1)C2 [Example 360, 4-(2-fluoro-6-methoxyphenoxy)-2-(4-(1-methyl-1H-pyrazol-4-yl)benzyl)-1,2-dihydro-3H-pyrrolo[3,4-c]pyridin-3-one] | 72 | 105 |
| Cn1ccc(-c2ccc(CN3Cc4ccnc(Oc5ccc(C(F)(F)F)cc5F)c4C3=O)cc2)n1 [Example 305, 4-(2-fluoro-4-(trifluoromethyl)phenoxy)-2-(4-(1-methyl-1H-pyrazol-3-yl)benzyl)-1,2-dihydro-3H-pyrrolo[3,4-c]pyridin-3-one] | 25 | 94 |
| Cc1nn(C)cc1-c1ccc(CN2Cc3ccnc(OCC4CCCO4)c3C2=O)c(F)c1 (stereo not drawn) [Example 229, 2-(4-(1,3-dimethyl-1H-pyrazol-4-yl)-2-fluorobenzyl)-4-((tetrahydrofuran-2-yl)methoxy)-1,2-dihydro-3H-pyrrolo[3,4-c]pyridin-3-one] | 6.1 | 117 |
| CCNC(=O)c1ccc(CN2Cc3ccnc(Oc4ccc(C)cc4F)c3C2=O)cc1 [Example 434, N-ethyl-4-((4-(2-fluoro-4-methylphenoxy)-3-oxo-1,3-dihydro-2H-pyrrolo[3,4-c]pyridin-2-yl)methyl)benzamide] | 26 | 95 |
| Cc1nn(C)cc1-c1ccc(CN2Cc3ccnc(Oc4c(F)cccc4Cl)c3C2=O)c(F)c1 [Example 280, 4-(2-chloro-6-fluorophenoxy)-2-(4-(1,3-dimethyl-1H-pyrazol-4-yl)-2-fluorobenzyl)-1,2-dihydro-3H-pyrrolo[3,4-c]pyridin-3-one] | 26 | 110 |
